PMC4965013, “Open Source Drug Discovery with the Malaria Box Compound Collection for Neglected Diseases and Beyond” (PLoS Pathogens, 2016)
Where two headings read alike, the source gives them in different places.

Assays:
P. falciparum 3D7 = experiment: [3H]-hypoxanthine growth inhibition, modified HCO3- or O2; type: cell-based; conditions: for IC50: Plasmodium falciparum
[1] = system: P. falciparum 3D7 trophozoites; experiment: Metabolomic fingerprint profiling LC-MS; type: cell-based, Plasmodium falciparum; parameters: UDP-D-glucose / ADP-D-glucose: unit not given here; conditions: for Acetyllysine / N-acetyl-L-ornithine / N-carbamoyl-L-aspartate / NADPH / dAMP / dCMP / dTDP / dTMP / dTTP / dihydroorotate / orotate / DLH / DLS/SDL/SID / PD / PEE / PVNF / 3-phosphoglycerate / ADP-D-glucose / ATP / CDP / D-sedoheptulose-1/7-phosphate / FAD / GMP / NAD+ / NADP+ / Octoluse Bisphosphate / Pyroglutamic acid / UDP-D-glucose / UDP-D-glucuronate / UDP-N-acetyl-glucosamine / UDP / UMP / UTP / a-ketoglutarate / citrate/isocitrate / cytidine / dATP / dGMP/AMP / fumarate / glucose-1/6-phosphate / glycerate / guanine / guanosine / hypoxanthine / indole / inosine / nicotinate / ornithine / phosphoenolpyruvate / pyruvate / ribose-phosphate / sarcosine/alanine / sn-glycerol-3-phosphate / succinate/methylmalonic acid / uridine / xanthosine: S2 Table Metabolomics; for Acetyllysine: metabolite Acetyllysine; for N-acetyl-L-ornithine: metabolite N-acetyl-L-ornithine; for N-carbamoyl-L-aspartate: metabolite N-carbamoyl-L-aspartate; for NADPH: metabolite NADPH; for dAMP: metabolite dAMP; for dCMP: metabolite dCMP; for dTDP: metabolite dTDP; for dTMP: metabolite dTMP; for dTTP: metabolite dTTP; for dihydroorotate: metabolite dihydroorotate; for orotate: metabolite orotate; for DLH: peptide DLH; for DLS/SDL/SID: peptide DLS/SDL/SID; for PD: peptide PD; for PEE: peptide PEE; for PVNF: peptide PVNF; for 3-phosphoglycerate: metabolite 3-phosphoglycerate; for ADP-D-glucose: metabolite ADP-D-glucose; for ATP: metabolite ATP; for CDP: metabolite CDP; for CDP / D-sedoheptulose-1/7-phosphate / GMP / Octoluse Bisphosphate / UDP / UMP / UTP / citrate/isocitrate / dGMP/AMP / fumarate / glucose-1/6-phosphate / glycerate / guanine / guanosine / inosine / pyruvate / sarcosine/alanine / succinate/methylmalonic acid / uridine / xanthosine: change in metabolite level after compound treatment; for D-sedoheptulose-1/7-phosphate: metabolite D-sedoheptulose-1/7-phosphate; for FAD: metabolite FAD; for GMP: metabolite GMP; for NAD+: metabolite NAD+; for NADP+: metabolite NADP+; for Octoluse Bisphosphate: metabolite Octoluse Bisphosphate; for Pyroglutamic acid: metabolite Pyroglutamic acid; for UDP-D-glucose: metabolite UDP-D-glucose; for UDP-D-glucuronate: metabolite UDP-D-glucuronate; for UDP-N-acetyl-glucosamine: metabolite UDP-N-acetyl-glucosamine; for UDP: metabolite UDP; for UMP: metabolite UMP; for UTP: metabolite UTP; for a-ketoglutarate: metabolite a-ketoglutarate; for citrate/isocitrate: metabolite citrate/isocitrate; for cytidine: metabolite cytidine; for dATP: metabolite dATP; for dGMP/AMP: metabolite dGMP/AMP; for fumarate: metabolite fumarate; for glucose-1/6-phosphate: metabolite glucose-1/6-phosphate; for glycerate: metabolite glycerate; for guanine: metabolite guanine; for guanosine: metabolite guanosine; for hypoxanthine: metabolite hypoxanthine; for indole: metabolite indole; for inosine: metabolite inosine; for 2_3-Diphosphoglyceric acid / 4-phosphopantothenate / 6-phospho-D-gluconate / FMN / IMP / Pyrophosphate / Sedoheptoluse bisphosphate / cyclic-AMP / glutathione disulfide / lactate / myo-inositol: metabolite level change after treatment; for nicotinate: metabolite nicotinate; for ornithine: metabolite ornithine; for phosphoenolpyruvate: metabolite phosphoenolpyruvate; for pyruvate: metabolite pyruvate; for ribose-phosphate: metabolite ribose-phosphate; for sarcosine/alanine: metabolite sarcosine/alanine; for sn-glycerol-3-phosphate: metabolite sn-glycerol-3-phosphate; for succinate/methylmalonic acid: metabolite succinate/methylmalonic acid; for uridine: metabolite uridine; for xanthosine: metabolite xanthosine
P. falciparum = experiment: EC50 listed in S2 Table Metabolomics (used to set the concentration tested); type: cell-based; conditions: Plasmodium falciparum; EC50 used for Factor_XEC50 in metabolomics; read-out: EC50_nM
[2] = 3D7, read-out: P. falciparum 3D7 IC50 HCO3- (2g/L), standard media
[3] = 3D7, HCO3- reduced media, read-out: P. falciparum 3D7 IC50 HCO3- reduced

CCCc1c(CC)c(=N)c2ccccc2n1C [MMV008416]
fold change (IC50normal/ IC50hypoxia) (P. falciparum 3D7): 6.1 | IC50 (P. falciparum 3D7; 3D7, read-out: P. falciparum 3D7 IC50 1% O2, 1% O2 hypoxia): 65 nM | IC50 (P. falciparum 3D7; 3D7, read-out: P. falciparum 3D7 IC50 5% O2): 397 nM | Acetyllysine [1]: 0.2915 | N-acetyl-L-ornithine [1]: 0.3364 | N-carbamoyl-L-aspartate [1]: 0.3652 | NADPH [1]: 0.8856 | dAMP [1]: 0.5762 | dCMP [1]: 3.613 | dTDP [1]: 0.4591 | dTMP [1]: 0.9083 | dTTP [1]: 0.4804 | dihydroorotate [1]: 0.2294 | orotate [1]: -0.1417 | DLH [1]: -1.006 | DLS/SDL/SID [1]: 0.3509 | PD [1]: 0.4359 | PEE [1]: -0.9814 | PVNF [1]: 0.2215 | 3-phosphoglycerate [1]: -0.02776 | ADP-D-glucose [1]: 0.4196 | ATP [1]: 0.6896 | CDP [1]: 0.2951 | D-sedoheptulose-1/7-phosphate [1]: -0.3684 | FAD [1]: 0.5238 | GMP [1]: 0.02334 | NAD+ [1]: 0.4432 | NADP+ [1]: 0.7628 | Octoluse Bisphosphate [1]: 0.3902 | Pyroglutamic acid [1]: -0.3783 | UDP-D-glucose [1]: 0.135 | UDP-D-glucuronate [1]: -0.2053 | UDP-N-acetyl-glucosamine [1]: 0.4341 | UDP [1]: 0.7261 | UMP [1]: -0.1733 | UTP [1]: 0.4819 | a-ketoglutarate [1]: 0.04368 | citrate/isocitrate [1]: -1.579 | cytidine [1]: 0.4905 | dATP [1]: 0.253 | dGMP/AMP [1]: 0.3177 | fumarate [1]: -0.39 | glucose-1/6-phosphate [1]: 2.308 | glycerate [1]: 0.1238 | guanine [1]: 0.3854 | guanosine [1]: -0.8003 | hypoxanthine [1]: 0.09764 | indole [1]: 0.1467 | inosine [1]: -0.1012 | 2_3-Diphosphoglyceric acid [1]: 0.2083 | 4-phosphopantothenate [1]: 0.7504 | 6-phospho-D-gluconate [1]: 0.5606 | FMN [1]: 0.7862 | IMP [1]: 0.4308 | Pyrophosphate [1]: -0.6119 | Sedoheptoluse bisphosphate [1]: 0.3141 | cyclic-AMP [1]: 0.6453 | glutathione disulfide [1]: 0.5116 | lactate [1]: 1.188 | myo-inositol [1]: 2.818 | nicotinate [1]: -0.5574 | ornithine [1]: -0.1174 | phosphoenolpyruvate [1]: -0.4016 | pyruvate [1]: 0.4708 | ribose-phosphate [1]: 0.2759 | sarcosine/alanine [1]: 0.4883 | sn-glycerol-3-phosphate [1]: 0.06223 | succinate/methylmalonic acid [1]: -0.5916 | uridine [1]: 0.398 | xanthosine [1]: -0.8913 | EC50 (P. falciparum): 242 nM

Cc1cc(C)cc(Nc2cc(C)nc3nc(C(F)(F)F)nn23)c1 [MMV011259]
fold change (IC50reduced/IC50normal) (P. falciparum 3D7): 2.2 | IC50 (P. falciparum 3D7; [2]): 59 nM | IC50 (P. falciparum 3D7; [3]): 132 nM | Acetyllysine [1]: -0.3746 | N-acetyl-L-ornithine [1]: -0.3462 | N-carbamoyl-L-aspartate [1]: 3.644 | NADPH [1]: -0.3366 | dAMP [1]: -0.7598 | dCMP [1]: -0.2996 | dTDP [1]: -1.147 | dTMP [1]: -1.715 | dTTP [1]: -1.159 | dihydroorotate [1]: 4.069 | orotate [1]: -1.5889 | DLH [1]: -0.4322 | DLS/SDL/SID [1]: -0.5334 | PD [1]: -0.3116 | PEE [1]: -0.461 | PVNF [1]: -0.5009 | 3-phosphoglycerate [1]: -0.8854 | ADP-D-glucose [1]: -0.2124 | ATP [1]: -0.1449 | CDP [1]: -0.8411 | D-sedoheptulose-1/7-phosphate [1]: 0.2305 | FAD [1]: -0.12 | GMP [1]: 0.1977 | NAD+ [1]: -0.2042 | NADP+ [1]: -0.294 | Octoluse Bisphosphate [1]: -0.4132 | Pyroglutamic acid [1]: -0.07042 | UDP-D-glucose [1]: -0.2997 | UDP-D-glucuronate [1]: -0.2701 | UDP-N-acetyl-glucosamine [1]: -0.5126 | UDP [1]: -1.399 | UMP [1]: -1.28 | UTP [1]: -1.133 | a-ketoglutarate [1]: -0.631 | citrate/isocitrate [1]: -1.3117 | cytidine [1]: 0.1757 | dATP [1]: 0.0538 | dGMP/AMP [1]: -0.551 | fumarate [1]: -0.9126 | glucose-1/6-phosphate [1]: -0.8385 | glycerate [1]: -1.011 | guanine [1]: -0.4133 | guanosine [1]: -0.4081 | hypoxanthine [1]: -0.3413 | indole [1]: -0.1801 | inosine [1]: -0.6501 | 2_3-Diphosphoglyceric acid [1]: -0.2003 | 4-phosphopantothenate [1]: -0.5735 | 6-phospho-D-gluconate [1]: -1.0674 | FMN [1]: -0.3875 | IMP [1]: -0.2517 | Pyrophosphate [1]: -0.0001746 | Sedoheptoluse bisphosphate [1]: -0.416 | cyclic-AMP [1]: -0.9316 | glutathione disulfide [1]: -0.2721 | lactate [1]: -0.3904 | myo-inositol [1]: -0.254 | nicotinate [1]: -0.9132 | ornithine [1]: -0.1147 | phosphoenolpyruvate [1]: -0.7531 | pyruvate [1]: -0.8729 | ribose-phosphate [1]: -0.4441 | sarcosine/alanine [1]: -0.2762 | sn-glycerol-3-phosphate [1]: -0.2294 | succinate/methylmalonic acid [1]: -0.3522 | uridine [1]: -1.619 | xanthosine [1]: -0.6868 | EC50 (P. falciparum): 85.7 nM

COc1ccc(-c2nc(NC(=O)CS(=O)(=O)c3ccc(F)cc3)sc2C)cc1 [MMV665915]
fold change (IC50reduced/IC50normal) (P. falciparum 3D7): 2.4 | IC50 (P. falciparum 3D7; [2]): 192 nM | IC50 (P. falciparum 3D7; [3]): 464 nM | Acetyllysine [1]: -0.1771 | N-acetyl-L-ornithine [1]: -0.3059 | N-carbamoyl-L-aspartate [1]: 0.053 | NADPH [1]: 0.1215 | dAMP [1]: -0.4653 | dCMP [1]: -0.2866 | dTDP [1]: 0.07665 | dTMP [1]: 0.08902 | dTTP [1]: -0.1721 | dihydroorotate [1]: -0.4672 | orotate [1]: -0.4189 | DLH [1]: 0.071 | DLS/SDL/SID [1]: -0.2498 | PD [1]: -0.3229 | PEE [1]: -0.02112 | PVNF [1]: 0.02436 | 3-phosphoglycerate [1]: -0.875 | ADP-D-glucose [1]: -0.2338 | ATP [1]: -0.08026 | CDP [1]: 0.2353 | D-sedoheptulose-1/7-phosphate [1]: 0.2732 | FAD [1]: -0.2366 | GMP [1]: -0.6644 | NAD+ [1]: -0.2604 | NADP+ [1]: -0.1454 | Octoluse Bisphosphate [1]: -0.3427 | Pyroglutamic acid [1]: 0.2622 | UDP-D-glucose [1]: -0.2684 | UDP-D-glucuronate [1]: -0.1851 | UDP-N-acetyl-glucosamine [1]: -0.3241 | UDP [1]: 0.1227 | UMP [1]: -0.7313 | UTP [1]: -0.06326 | a-ketoglutarate [1]: -0.1843 | citrate/isocitrate [1]: 0.1306 | cytidine [1]: -0.25 | dATP [1]: -0.1264 | dGMP/AMP [1]: -0.5258 | fumarate [1]: -0.3392 | glucose-1/6-phosphate [1]: -0.6162 | glycerate [1]: -0.5026 | guanine [1]: -0.3726 | guanosine [1]: -0.4353 | hypoxanthine [1]: 0.151 | indole [1]: 0.2601 | inosine [1]: -0.1084 | 2_3-Diphosphoglyceric acid [1]: -0.3692 | 4-phosphopantothenate [1]: -0.3105 | 6-phospho-D-gluconate [1]: -0.535 | FMN [1]: -0.2195 | IMP [1]: -0.3295 | Pyrophosphate [1]: -0.0001746 | Sedoheptoluse bisphosphate [1]: -0.2854 | cyclic-AMP [1]: -0.3638 | glutathione disulfide [1]: -0.4248 | lactate [1]: -0.1885 | myo-inositol [1]: -0.6665 | nicotinate [1]: -0.4616 | ornithine [1]: -0.3065 | phosphoenolpyruvate [1]: -0.5464 | pyruvate [1]: -0.3441 | ribose-phosphate [1]: -0.3706 | sarcosine/alanine [1]: -0.5111 | sn-glycerol-3-phosphate [1]: -0.2801 | succinate/methylmalonic acid [1]: -0.2666 | uridine [1]: -0.2088 | xanthosine [1]: -0.3176 | EC50 (P. falciparum): 448 nM
